Here are results for one molecule from US20220304997A1, “REBAMIPIDE FOR USE IN PROPHYLAXIS AND TREATMENT OF CANCER” (SQUARE POWER LTD., priority 2019, published 2022).

The test system of the assay is Male CD-1 mice. As to the kind of experiment: DSS model combined with PhIP treatment (increased intestinal permeability, colitis and colon tumors). Format: in vivo. The source says: To study the effect of rebamipide on increased intestinal permeability, colonic inflammation and cancer development, a DSS model combined with PhIP treatment was employed. Male CD-1 mice, divided into three groups, designated A to C, were used in the study. […] Subsequently, all animals were given inflammatory insult using 2% dextran sodium sulfate (DSS) in drinking water for 7 days, followed by 2-4 weeks of recovery period, during which mice were given untreated water. This cycle was repeated up to four times to induce increased intestinal permeability leading to severe colitis with loss of body weight and bloody diarrhea. Subsequently, majority of animals developed multiple colon tumors. Treatment with DSS (dextran sulfate sodium) induces increased intestinal permeability in mice by binding to medium-chain-length fatty acids present in the colon leading to development of inflammation and colitis. Besides that, the DSS administration leads to a long-term development of dysplasia and even colon cancer in some of the mice treated. PhIP treatment accelerates this process and further increases the incidence of colonic tumors. Another advantage of including PhIP in the protocol is that it allows reduction of the DSS dose in mice, and decreases the mortality from DSS-associated acute colitis. The carcinogenic process of the DSS/PhIP system has a pathological progression from normal intestinal crypts to the formation of foci harboring aberrant crypts with crypt fission and finally to the emergence of microadenomas. These steps recapitulate the sequence of colorectal cancer formation in humans from increased intestinal permeability and inflammation through dysplasia to carcinoma. Rebamipide treatment started four weeks prior to carcinogen administration and continued throughout the study. Groups A and B received rebamipide 50 mg/kg/day and 350 mg/kg/day, respectively. Rebamipide was applied within the standard daily feed or by gavage if needed. The treatment lasted for 20 weeks. […] [table] The observed parameters were as follows: • Number and size of tumors • Histological evaluation of the tumors • Weight loss • Colitis severity assessment • Gut permeability • Cytokines and related markers (IL-6, IL-10, IL-1b, TNFα, iNOS, IL-23p19, MCP 1, MIP 2, CXCL1) • Cell-cell adhesion proteins (Claudin 1, β catenin) • Expression of target genes

The mark [1] stands for this setting: PhIP/DSS-treated mice, in comparison to untreated animals.
Where [2] appears, read: groups A and B, rebamipide 50 mg/kg/day and 350 mg/kg/day, 20 weeks, vs untreated control group C, preliminary results.

SMILES strings stand for the structures.

For the molecule `O=C(NC(Cc1cc(=O)[nH]c2ccccc12)C(=O)O)c1ccc(Cl)cc1` (stereo not drawn) [rebamipide, 2-[(4-chlorobenzoyl)amino]-3-(2-oxo-1H-quinolin-4-yl)propanoic acid], under setting [1], the intestinal inflammation result was “suppresses intestinal inflammation”; the “onset of the symptoms and markers corresponding to colon cancer” value is listed as “preventing or at least delaying the onset”; the “permeability of the gastrointestinal mucosa” value is on record as “decrease in permeability”. In addition, the “recovery from the DSS treatment” value (groups A and B, rebamipide 50 mg/kg/day and 350 mg/kg/day in feed or by gavage, 20 weeks, vs untreated control group C, preliminary results) is on record as “recovered faster”. Under setting [2], the “incidence of tumors at the end of the study” value is “lower incidence”; the “size of tumors at the end of the study” value was “lower incidence and size of tumors”.
